Laboratory results: patent publication US11427548B2 (Arvinas Operations, Inc., priority 2015, dated 2022)
Like-named read-outs stand apart in the source and are kept apart here.

Molecular target: T1, Androgen Receptor (Homo sapiens, UniProt P10275)
T1 construct: endogenous in cells; host or cells: VCaP cells
T1 sequence (P10275 1-920): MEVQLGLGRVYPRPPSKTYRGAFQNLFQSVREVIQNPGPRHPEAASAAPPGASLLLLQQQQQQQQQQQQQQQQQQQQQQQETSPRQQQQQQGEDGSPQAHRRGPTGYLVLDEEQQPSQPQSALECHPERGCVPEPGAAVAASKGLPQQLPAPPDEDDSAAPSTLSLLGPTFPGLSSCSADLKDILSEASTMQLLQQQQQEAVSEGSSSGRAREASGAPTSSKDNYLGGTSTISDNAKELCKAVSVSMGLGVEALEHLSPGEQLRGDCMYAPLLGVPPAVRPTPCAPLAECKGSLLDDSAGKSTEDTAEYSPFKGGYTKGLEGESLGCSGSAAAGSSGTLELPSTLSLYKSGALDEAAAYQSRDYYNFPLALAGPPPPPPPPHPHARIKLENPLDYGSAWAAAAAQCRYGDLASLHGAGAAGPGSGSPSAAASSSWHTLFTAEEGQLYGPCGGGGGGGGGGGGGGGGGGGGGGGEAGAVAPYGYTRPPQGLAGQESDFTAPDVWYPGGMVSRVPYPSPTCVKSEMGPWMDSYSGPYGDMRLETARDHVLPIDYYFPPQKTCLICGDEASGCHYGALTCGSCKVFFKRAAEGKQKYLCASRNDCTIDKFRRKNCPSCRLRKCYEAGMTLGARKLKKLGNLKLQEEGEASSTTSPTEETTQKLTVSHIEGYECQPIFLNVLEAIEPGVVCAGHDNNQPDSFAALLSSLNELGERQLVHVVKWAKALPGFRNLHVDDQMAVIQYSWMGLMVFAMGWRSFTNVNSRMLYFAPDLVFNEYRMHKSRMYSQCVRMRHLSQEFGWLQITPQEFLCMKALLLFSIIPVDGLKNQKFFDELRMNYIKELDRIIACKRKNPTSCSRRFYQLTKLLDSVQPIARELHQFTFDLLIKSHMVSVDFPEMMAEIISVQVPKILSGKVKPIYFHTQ
Assay: Androgen Receptor ELISA assay (PathScan AR ELISA) in VCaP cells: AR degradation, Dmax and DC50
Type: cell-based
Outline: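 After 24 h exposure of VCaP cells (charcoal-stripped serum, 0.1 nM R1881 agonist, 0.1% DMSO) to seven half-log compound concentrations, residual AR in lysates was measured by PathScan ELISA (TMB absorbance, 450 nm). Cells were plated at 30,000/well and grown at least 3 days beforehand.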

[1] = read-out: VCaP DC50; concentration that caused 50% Androgen Receptor degradation, VCaP cells (Table 32)

## Cc1ncsc1-c1ccc(CNC(=O)[C@@H]2C[C@@H](O)CN2C(=O)[C@@H](NC(=O)COCCCCOc2ccc(-c3ccc(N4C(=S)N(c5ccc(C#N)c(C(F)(F)F)c5)C(=O)C4(C)C)cc3)c(O)c2)C(C)(C)C)cc1 [Example 403]
VCaP, read-out: VCaP Dmax (%)
  Dmax: 51 to 70%
read-out: VCaP DC50; VCaP cells; Table 34
  DC50: < 0.05 µM

## Cc1ncoc1-c1ccc([C@H](C)NC(=O)[C@@H]2C[C@@H](O)CN2C(=O)[C@@H](NC(=O)COCCCCOc2ccc(-c3ccc(N4C(=S)N(c5ccc(C#N)c(C(F)(F)F)c5)C(=O)C4(C)C)cc3)cc2)C(C)(C)C)cc1 [Example 101, (2S,4R)-1-[(2S)-2-(2-{4-[4-(4-{3-[4-cyano-3-(trifluoromethyl)phenyl]-5,5-dimethyl-4-oxo-2-sulfanylideneimidazolidin-1-yl}phenyl)phenoxy]butoxy}acetamido)-3,3-dimethylbutanoyl]-4-hydroxy-N-[(1S)-1-[4-(4-methyl-1,3-oxazol-5-l)phenyl]ethyl]pyrrolidine-2-carboxamide]
VCaP, read-out: VCaP Dmax (%)
  Dmax: > 71%
[1]
  DC50: < 0.05 µM

## Cc1ncoc1-c1ccc(CNC(=O)[C@@H]2C[C@@H](O)CN2C(=O)[C@@H](NC(=O)COCCCOCCCCOc2ccc(N3C(=S)N(c4ccc(C#N)c(C(F)(F)F)c4)C(=O)C3(C)C)cc2)C(C)(C)C)cc1 [Example 35, (2S,4R)-1-[(2S)-2-(2-{3-[4-(4-{3-[4-cyano-3-(trifluoromethyl)phenyl]-5,5-dimethyl-4-oxo-2-sulfanylideneimidazolidin-1-yl}phenoxy)butoxy]propoxy}acetamido)-3,3-dimethylbutanoyl]-4-hydroxy-N-{[4-(4-methyl-1,3-oxazol-5-yl)phenyl]methyl}pyrrolidine-2-carboxamide]
VCaP, read-out: VCaP Dmax (%)
  Dmax: 51 to 70%
read-out: VCaP DC50; concentration that caused 50% Androgen Receptor degradation, VCaP cells
  DC50: < 0.05 µM

## CC(C)[C@H](NC(=O)COCCCCCNc1ccc(C(=O)N[C@H]2C(C)(C)[C@H](Oc3ccc(C#N)c(Cl)c3)C2(C)C)cc1)C(=O)N1C[C@H](O)C[C@H]1C(=O)NCc1ccc(C#N)cc1 [Example 520]
VCaP cells; Table 35; read-out: VCaP DC50
  DC50: > 0.501 µM
VCaP, VCaP cells; Table 35; read-out: VCaP Dmax (%)
  Dmax: 26 to 50%

## CC(C)(C)[C@H](NC(=O)COCCCCOc1ccc(-c2ccc(N3C(=S)N(c4ccc(C#N)c(Cl)c4)C(=O)C3(C)C)c(F)c2)cc1)C(=O)N1C[C@H](O)C[C@H]1C(=O)NCc1ccc(-c2cncs2)cc1 [Example 108, (2S,4R)-1-[(2S)-2-{2-[4-(4-{4-[3-(3-chloro-4-cyanophenyl)-5,5-dimethyl-4-oxo-2-sulfanylideneimidazolidin-1-yl]-3-fluorophenyl}phen-oxy)butoxy]acetamido}-3,3-dimethylbutanoyl]-4-hydroxy-N-{[4-(1,3-thiazol-5-yl)phenyl]methyl}pyrrolidine-2-carboxamide]
VCaP, read-out: VCaP Dmax (%)
  Dmax: > 71%
[1]
  DC50: < 0.05 µM

## Cc1ncsc1-c1ccc(CNC(=O)[C@@H]2C[C@@H](O)CN2C(=O)[C@@H](NC(=O)COC[C@H]2C[C@H](Oc3ccc(-c4ccc(N5C(=S)N(c6ccc(C#N)c(C(F)(F)F)c6)C(=O)C5(C)C)cc4)cc3)C2)C(C)(C)C)cc1 [Example 565]
VCaP, read-out: VCaP Dmax (%)
  Dmax: > 71%
read-out: VCaP DC50; VCaP cells; Table 35
  DC50: < 0.05 µM

## Cc1ncsc1-c1ccc([C@H](C)NC(=O)[C@@H]2C[C@@H](O)CN2C(=O)[C@H](C(C)C)n2cc(Oc3ccc(OC4CCC(Oc5ccc(N6C(=S)N(c7ccc(C#N)c(C(F)(F)F)c7)C(=O)C6(C)C)cc5)CC4)nc3)cn2)cc1 (stereo partly drawn) [Example 627, (2S,4R)-1-((S)-2-(4-((6-((4-(4-(3-(4-cyano-3-(trifluoromethyl)phenyl)-5,5-dimethyl-4-oxo-2-thioxoimidazolidin-1-yl)phenoxy)cyclohexyl)oxy)pyridin-3-yl)oxy)-1H-pyrazol-1-yl)-3-methylbutanoyl)-4-hydroxy-N-((S)-1-(4-(4-methylthiazol-5-yl)phenyl)ethyl)pyrrolidine-2-carboxamide]
VCaP, read-out: VCaP Dmax (%)
  Dmax: 26 to 50%
read-out: VCaP DC50; VCaP cells; Table 36
  DC50: > 0.501 µM
